From US20150218141A1, “SUBSTITUTED CARBAMATE COMPOUNDS” (HOFFMANN-LA ROCHE INC, priority 2012, published 2015)
Structures can show the parent of a compound that is named as a salt.

Biological target: T1, hTRPA1 (Homo sapiens, UniProt O75762)
T1 construct: host or cells: CHO-K1 Tet-On, Clone 20 (Chinese Hamster Ovary cells, inducible expression)
Test: IC50 determination, dose response calcium flux (FLIPR) assay, ChanTest hTRPA1-CHO stably transfected cell line
Type: cell-based
Conditions: CHO-K1 Tet-On hTRPA1 cells, 30' preincubation, agonist cinnamaldehyde final 100 uM
Method: IC50 Determination of Exemplified Compounds Dose Response Assay: ChanTest hTRPA1-CHO Stably Transfected Cell Line
CHO-K1 Tet-On_HOMSA_TRPA1_Clone—20
Growth Media for CHO-K1 Tet-On_HOMSA_TRPA1_Clone—20 • Ham's F-12 with 10% tetracycline-free FBS • 1× penicillin-streptomycin • 1× glutamax • 0.01 mg/ml Blasticidin • 0.40 mg/ml Zeocin • The cell line doubling rate was ˜15 hours. […] Experiments were run at 24 hours post induction.
Plating Conditions CHOK1/TRPA1 Cells: • Harvested cells with 0.025% trypsin/EDTA. • Resuspended cells in growth media without selection antibiotics. • Measured cell density and diluted to 2.4×10^5 cells/ml in media containing 1 ug/ml Doxycycline Plate 25 ul/well into 384 well black/clear tissue culture-treated plates. • Incubated overnight at 37° C.
Reagents: • Replacement Buffer: Hank's Balanced Salt Solution, 20 mM HEPES along with 0.005% BSA and 2× Probenecid • Dye Loading Buffer: Cal-3 NW Calcium dye was prepared by dissolving the contents of one vial with […] Hank's Balanced Salt Solution containing 20 mM HEPES. • Control compounds for CHOK1/TRPA1 cells: AP-18, stock 10 mM, prepare 3.5× compound dilution in a Compound Buffer (HBSS/20 mM HEPES/0.005% BSA)—final concentration 10 uM.
Preparation of Cinnamaldehyde (Agonist Addition):
• Specific gravity=1.046 gm/cc • 1.32 gm/1.046 gm/cc=1.26 ml of stock • Add 1.74 ml DMSO=3.3 M stock • Working solution 4.5× (final 100 uM in Compound Buffer: HBSS/20 mM HEPES/0.005% BSA)
Compounds dilutions were prepared from 5 or 10 mM stock (100% DMSO): • Adjustments of volumes and concentrations were made at time of titration to reflect desired final assay concentrations. • Compounds were tested at either 20 μM three folds dilution 11 steps out or 30 μM two folds dilution 11 steps out. • 3 μl of diluted compound were transferred into Weidmann 384-well plate in duplicates side-by-side.
Compound plates were resuspended with 100 ul of HBSS/20 mM HEPES/0.005% BSA buffer (Compound Buffer):
Growth media was removed from the cell plates (20 ul) and 20 ul of the Replacement Buffer was added followed by addition of 25 ul of diluted dye. All three steps were performed using a Plate Washer BioTek 407. The plates were then incubated for 30′ at RT.
After incubation, both the cell and compound plates were brought to the FLIPR and 20 ul of the diluted compounds/antagonist/bk were transferred to the cell plates by the FLIPR. Plates were then incubated for 30′ at room temperature. After 30′ incubation, plates were returned to the FLIPR and 20 ul of 4.5× Cinnamaldehyde was added to the cell plates. During the compound addition as well as agonist addition, fluorescence readings were taken simultaneously from all 384 wells of the cell plate every 1.5 seconds. Five readings were taken to establish a stable baseline, then 20 ul of sample was rapidly (30 ul/sec) and simultaneously added to each well of the cell plate. The fluorescence was continuously monitored before, during and after sample/agonist addition for a total elapsed time of 100 seconds (compound addition) and 120 seconds (agonist addition). Responses (increase in peak fluorescence) in each well following agonist addition was determined. The initial fluorescence reading from each well, prior to ligand stimulation, was used a zero baseline value for the data from that well.

T1 sequence (O75762 whole entry): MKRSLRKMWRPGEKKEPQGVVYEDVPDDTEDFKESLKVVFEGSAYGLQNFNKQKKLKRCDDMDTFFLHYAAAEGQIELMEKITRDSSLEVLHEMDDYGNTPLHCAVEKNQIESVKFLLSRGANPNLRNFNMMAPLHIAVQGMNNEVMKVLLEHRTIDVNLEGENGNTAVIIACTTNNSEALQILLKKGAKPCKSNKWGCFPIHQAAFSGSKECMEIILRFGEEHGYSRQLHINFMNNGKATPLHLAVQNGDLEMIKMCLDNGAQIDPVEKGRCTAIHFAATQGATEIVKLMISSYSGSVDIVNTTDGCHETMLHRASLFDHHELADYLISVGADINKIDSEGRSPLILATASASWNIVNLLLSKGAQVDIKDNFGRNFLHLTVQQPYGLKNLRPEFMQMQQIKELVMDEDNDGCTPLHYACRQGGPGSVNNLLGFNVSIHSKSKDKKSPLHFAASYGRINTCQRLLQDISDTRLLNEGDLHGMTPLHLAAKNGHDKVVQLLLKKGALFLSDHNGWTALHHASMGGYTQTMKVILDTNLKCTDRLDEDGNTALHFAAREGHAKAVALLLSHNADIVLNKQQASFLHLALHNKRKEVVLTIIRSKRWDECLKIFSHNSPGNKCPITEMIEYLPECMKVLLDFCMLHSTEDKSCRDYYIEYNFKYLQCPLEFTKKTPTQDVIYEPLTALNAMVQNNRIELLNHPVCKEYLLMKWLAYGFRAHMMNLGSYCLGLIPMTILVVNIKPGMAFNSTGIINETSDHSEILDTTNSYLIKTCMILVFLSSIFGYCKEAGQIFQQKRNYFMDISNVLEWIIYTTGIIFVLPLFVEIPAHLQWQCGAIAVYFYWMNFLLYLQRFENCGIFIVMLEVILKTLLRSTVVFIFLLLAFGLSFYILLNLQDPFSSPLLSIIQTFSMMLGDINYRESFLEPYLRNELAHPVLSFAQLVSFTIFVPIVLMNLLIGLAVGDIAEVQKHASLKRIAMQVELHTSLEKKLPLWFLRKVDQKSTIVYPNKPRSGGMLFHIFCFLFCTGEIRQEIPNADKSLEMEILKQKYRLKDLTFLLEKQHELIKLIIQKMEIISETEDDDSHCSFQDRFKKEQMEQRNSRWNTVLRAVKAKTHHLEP

IC50 [nM]	Compound
1850	Cc1noc(C2CCCN(C[C@H](OC(=O)Nc3ccc(Cl)cc3)C(F)(F)F)C2)n1 (mixture of isomers) [Example 28, (4-Chlorophenyl)-carbamic acid (S)-2,2,2-trifluoro-1-[3-(3-methyl-[1,2,4]oxadiazol-5-yl)-piperidin-1-ylmethyl]-ethyl ester hydrochloride]
4150	O=C(Nc1ccc(Cl)cc1)O[C@@H](CN1CCC[C@H](Oc2ccncc2)C1)C(F)(F)F (racemic) [Example 22a, (4-chloro-phenyl)-carbamic acid 2,2,2-trifluoro-1-[(R)-3-(pyridin-4-yloxy)-piperidin-1-ylmethyl]-ethyl ester]
1760	O=C(Nc1ccc(Cl)cc1)O[C@@H](CN1CCC[C@H](Oc2ccncc2)C1)C(F)(F)F (racemic) [Example 22b, (4-chlorophenyl)-carbamic acid 2,2,2-trifluoro-1-[(S)-3-(pyridin-4-yloxy)-piperidin-1-ylmethyl]-ethyl ester]
135	O=C(C[C@@H](CN1CCC[C@H](c2cccc(C(F)(F)F)c2)C1)C(F)(F)F)Nc1ccc(Cl)cc1 (racemic) [Example 25, Racemic (S)—N-(4-Chlorophenyl)-4,4,4-trifluoro-3-[(R)-3-(3-trifluoromethylphenyl)-piperidin-1-ylmethyl]-butyramide]
1400	O=C(C[C@@H](CN1CCC[C@@H](c2cccc(C(F)(F)F)c2)C1)C(F)(F)F)Nc1ccc(Cl)cc1 (racemic) [Example 26, Racemic (S)—N-(4-Chloro-phenyl)-4,4,4-trifluoro-3-[(S)-3-(3-trifluoromethyl-phenyl)-piperidin-1-ylmethyl]-butyramide]
1340	O=C(Nc1ccc(Cl)cc1)O[C@@H](CN1CCC[C@@H](Cc2ccccc2)C1)C(F)(F)F (single isomer, unassigned) [Example 10]
87.2	O=C(Nc1ccc(Cl)cc1)O[C@@H](CN1CCC[C@H](Cc2ccccc2)C1)C(F)(F)F (single isomer, unassigned) [Example 11]
312	O=C(Nc1ccc(Cl)cc1)O[C@@H](CN1CCC[C@@H](c2cc(C(F)(F)F)cc(C(F)(F)F)c2)C1)C(F)(F)F (single isomer, unassigned) [Example 24]
10.4	O=C(Nc1ccc(Cl)cc1)O[C@@H](CN1CCC[C@H](c2cccc(C(F)(F)F)c2)C1)C(F)(F)F (single isomer, unassigned) [Example 30, hydrochloride]
4970	COc1ccccc1C1CCCN(CC(OC(=O)Nc2ccc(Cl)cc2)C(F)(F)F)C1 (stereo not drawn) [Example 1, (4-Chlorophenyl)-carbamic acid 2,2,2-trifluoro-1-[3-(2-methoxyphenyl)-piperidin-1-ylmethyl]-ethyl ester]
345	COc1cccc(C2CCCN(CC(OC(=O)Nc3ccc(Cl)cc3)C(F)(F)F)C2)c1 (stereo not drawn) [Example 2, (4-Chlorophenyl)-carbamic acid 2,2,2-trifluoro-1-[3-(3-methoxyphenyl)-piperidin-1-ylmethyl]-ethyl ester hydrochloride]
121	COc1cccc([C@H]2CCCN(C[C@H](OC(=O)Nc3ccc(Cl)cc3)C(F)(F)F)C2)c1 [Example 3, (4-Chlorophenyl)-carbamic acid (S)-2,2,2-trifluoro-1-[(R)-3-(3-methoxyphenyl)-piperidin-1-ylmethyl]-ethyl ester hydrochloride]
7700	COc1cccc([C@@H]2CCCN(C[C@H](OC(=O)Nc3ccc(Cl)cc3)C(F)(F)F)C2)c1 [Example 4, (4-Chlorophenyl)-carbamic acid (S)-2,2,2-trifluoro-1-[(S)-3-(3-methoxyphenyl)-piperidin-1-ylmethyl]-ethyl ester hydrochloride]
333	O=C(Nc1ccc(Cl)cc1)O[C@@H](CN1CCC[C@H](c2ccccc2)C1)C(F)(F)F [Example 5, (4-Chlorophenyl)-carbamic acid (S)-2,2,2-trifluoro-1-((R)-3-phenylpiperidin-1-ylmethyl)-ethyl ester hydrochloride]
1500	O=C(Nc1ccc(Cl)cc1)O[C@@H](CN1CCC[C@@H](c2ccccc2)C1)C(F)(F)F [Example 6, (4-Chlorophenyl)-carbamic acid (S)-2,2,2-trifluoro-1-((S)-3-phenylpiperidin-1-ylmethyl)-ethyl ester hydrochloride]
6400	O=C(Nc1ccc(Cl)cc1)O[C@H](CN1CCC[C@H](c2ccccc2)C1)C(F)(F)F [Example 7, (4-Chlorophenyl)-carbamic acid (R)-2,2,2-trifluoro-1-((R)-3-phenylpiperidin-1-ylmethyl)-ethyl ester hydrochloride]
6200	O=C(Nc1ccc(Cl)cc1)O[C@H](CN1CCC[C@@H](c2ccccc2)C1)C(F)(F)F [Example 8, (4-Chlorophenyl)-carbamic acid (R)-2,2,2-trifluoro-1-((S)-3-phenylpiperidin-1-ylmethyl)-ethyl ester hydrochloride]
339	O=C(Nc1ccc(Cl)cc1)OC(CN1CCCC(Cc2ccccc2)C1)C(F)(F)F (stereo not drawn) [Example 9, (4-Chlorophenyl)-carbamic acid 1-(3-benzylpiperidin-1-ylmethyl)-2,2,2-trifluoroethyl ester hydrochloride salt (1:1)]
550	COc1cccc(CC2CCCN(C[C@H](OC(=O)Nc3ccc(Cl)cc3)C(F)(F)F)C2)c1 (stereo partly drawn) [Example 12, (4-Chlorophenyl)-carbamic acid (S)-2,2,2-trifluoro-1-[3-(3-methoxybenzyl)-piperidin-1-ylmethyl]-ethyl ester hydrochloride salt (1:1)]
277	N#CC1CCCN(CC(OC(=O)Nc2ccc(Cl)cc2)C(F)(F)F)C1 (stereo not drawn) [Example 13, (4-Chlorophenyl)-carbamic acid 1-(3-cyanopiperidin-1-ylmethyl)-2,2,2-trifluoroethyl ester]
137	O=C(Nc1ccc(Cl)cc1)OC(CN1CCCC(OCc2ccccc2)C1)C(F)(F)F (stereo not drawn) [Example 14, (4-Chlorophenyl)-carbamic acid 1-(3-benzyloxypiperidin-1-ylmethyl)-2,2,2-trifluoroethyl ester]
563	O=C(Nc1ccc(Cl)cc1)OC(CN1CCCC(C(F)(F)F)C1)C(F)(F)F (stereo not drawn) [Example 15, (4-chlorophenyl)-carbamic acid 2,2,2-trifluoro-1-(3-trifluoromethylpiperidin-1-ylmethyl)-ethyl ester]
4160	COC1CCCN(CC(OC(=O)Nc2ccc(Cl)cc2)C(F)(F)F)C1 (stereo not drawn) [Example 16, (4-Chlorophenyl)-carbamic acid 2,2,2-trifluoro-1-(3-methoxypiperidin-1-ylmethyl)-ethyl ester]
900	CCC1CCCN(CC(OC(=O)Nc2ccc(Cl)cc2)C(F)(F)F)C1 (stereo not drawn) [Example 17, (4-Chlorophenyl)-carbamic acid 1-(3-ethylpiperidin-1-ylmethyl)-2,2,2-trifluoroethyl ester]
883	O=C(Nc1ccc(Cl)cc1)OC(CN1CCCC(C2CCCCC2)C1)C(F)(F)F (stereo not drawn) [Example 18, (4-Chlorophenyl)-carbamic acid 1-(3-cyclohexylpiperidin-1-ylmethyl)-2,2,2-trifluoroethyl ester]
288	COCCCC1CCCN(CC(OC(=O)Nc2ccc(Cl)cc2)C(F)(F)F)C1 (stereo not drawn) [Example 19, (4-Chlorophenyl)-carbamic acid 2,2,2-trifluoro-1-[3-(3-methoxypropyl)-piperidin-1-ylmethyl]-ethyl ester]
165	COc1ccc(CC2CCCN(C[C@H](OC(=O)Nc3ccc(Cl)cc3)C(F)(F)F)C2)cc1 (stereo partly drawn) [Example 20, (4-Chlorophenyl)-carbamic acid 2,2,2-trifluoro-1-[3-(4-methoxybenzyl)-piperidin-1-ylmethyl]-ethyl ester]
